The test system of one assay is effector T cells. The settings on record: T cells attenuated by soluble and membrane-bound PD-L1; ref [59]; cited from earlier work.
For the next assay, the target named is T1, (N66A)PD-1/PD-L1 complex (Homo sapiens, UniProt Q9NZQ7).
T1 construct: made in house; host or cells: E. coli BL21 (DE3)
In words: w-AIDA-NMR on (N66A)PD-1/PD-L1 complex. Type of assay: binding.

A further assay deals with T2, PD-1/PD-L1 complex (Homo sapiens, UniProt Q9NZQ7).
T2 construct: made in house; host or cells: E. coli BL21 (DE3)
The settings on record: ref [59]; cited from earlier work.

A further assay addresses T3, MdmX (Homo sapiens, UniProt O15151).
T3 sequence (O15151 18-111): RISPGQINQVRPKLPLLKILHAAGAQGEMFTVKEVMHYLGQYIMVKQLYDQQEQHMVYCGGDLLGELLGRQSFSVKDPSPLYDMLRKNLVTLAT
Description: Fluorescence polarization competition assay (displacement of P2 peptide), MdmX. The settings on record: read-out: Ki towards MdmX; FP assay.

T1 sequence (Q9NZQ7 18-134, stated change not applied, one chain of several): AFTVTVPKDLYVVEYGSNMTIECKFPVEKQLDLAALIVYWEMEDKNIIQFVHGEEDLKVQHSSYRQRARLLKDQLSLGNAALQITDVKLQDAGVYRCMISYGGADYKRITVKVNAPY
T2 sequence (Q9NZQ7 18-134, one chain of several): as the sequence (Q9NZQ7 18-134, stated change not applied, one chain of several) above

Regarding `Cc1c(COc2cc(OCc3cccc(C#N)c3)c(CN3C[C@H](O)C[C@@H]3C(=O)O)cc2Cl)cccc1-c1ccc2c(c1)OCCO2` [BMS-1166], the “Activation of effector T cells” value in the assay on effector T cells is recorded as “activates the effector T cells”. For the same molecule, the “Recovery of PD-1 signals in 1D 1H-NMR spectra” value at (N66A)PD-1/PD-L1 complex ((N66A)PD-1/PD-L1 complex, molar ratio 1:1) is “full recovery of the PD-1 signals”. The “Dissociation of (N66A)PD-1/PD-L1 complex (recovery of 2D HMQC signals)” value on (N66A)PD-1/PD-L1 complex (equimolar amount of compound) is “full recovery of 2D HMQC spectrum”. Further, the “Dissociation of human PD-1/PD-L1 complex in vitro” value on PD-1/PD-L1 complex is given as “efficiently dissociates the human PD-1/PD-L1 complex in vitro”.

With `CC(C)(C)NC(=O)C(c1c(C(=O)O)[nH]c2cc(Cl)ccc12)N(C=O)Cc1cc(F)cc(F)c1F` (centres unmarked) [compound 4], the Ki (as a rule, a measure of affinity in units of concentration, obtained from inhibition or displacement) at MdmX is 27 µM.

These data come from article PMC7412237, “Competition NMR for Detection of Hit/Lead Inhibitors of Protein–Protein Interactions” (Molecules, 2020).
